For orientation: IC50 means the concentration at which inhibition is half-maximal. The low end stands for greater potency, the high end for weaker potency. In general, melting point refers to the temperature of the solid-liquid transition.

The structures appear in SMILES notation.

From publication PMC6099623, “Novel Thiazolidinone/Thiazolo[3,2-a]Benzimidazolone-Isatin Conjugates as Apoptotic Anti-proliferative Agents Towards Breast Cancer: One-Pot Synthesis and In Vitro Biological Evaluation” (Molecules : A Journal of Synthetic Chemistry and Natural …, 2018) come the findings set out here.

Data set [1] deals with MDA-MB-231 breast cancer cell line. The data set can be described thus: Crystal Violet antiproliferative assay, MDA-MB-231. It counts as cell-based. Particulars: 48 h of incubation, mean ± S.D. of three separate experiments. The procedure: (§1) The in vitro antiproliferative activity of the newly synthesized conjugates 4a–n and 7a–d was evaluated against breast cancer MDA-MB-231 and MCF-7 cell lines, following the Crystal Violet (CV) cell cytotoxicity assay. Doxorubicin was included in this assay as a positive control, and Sunitinib was used as a reference drug.
(§2) Breast cancer cell lines MDA-MB-231 and MCF-7 cells were obtained from VACSERA Tissue Culture Unit. The cells were propagated in DMEM supplemented with 10% heat-inactivated fetal bovine serum, 1% L-glutamine (2.5 mM), HEPES (4-(2-hydroxyethyl)-1-piperazineethanesulfonic acid) buffer (10 mM) and 50 µg/mL gentamycin. All cells were maintained at 37 °C in a humidified atmosphere with 5% CO2 and were sub-cultured two times a week. Cytotoxicity was determined following the Crystal Violet (CV) cell cytotoxicity assay.
(§3) Test samples were dissolved in DMSO and kept at a stock concentration of 100 mM. Exponentially growing cells were collected using 0.25% Trypsin-EDTA and seeding was done at a density of 3000 cells/well in 96-well plates. After 24 h, the monolayer cultured cells were washed with sterile phosphate buffered saline (0.01 M pH 7.2) and simultaneously the cells were treated with […] from 10 different dilutions of the test compounds as well as Doxorubicin was […] Control wells were exposed to the same concentration of vehicle, DMSO (1%) used in the highest concentration of the test samples. Cell viability was >99% compared to untreated cells. The number of the surviving cells was determined by staining the cells with crystal violet followed by cell lysing using 33% glacial acetic acid. The absorbance was measured at 490 nm using ELISA reader (Thermo Fisher Scientific, Waltham, MA, USA) after gentle shaking. The absorbance values from untreated cells were considered as 100% proliferation.
(§4) The number of viable cells was determined using ELISA reader as previously mentioned and the percentage of viability was calculated as […] where ODt is the mean optical density of wells treated with the test sample and ODc is the mean optical density of untreated cells. The 50% inhibitory concentration (IC50) was estimated from graphic plots of the dose response curve for each conc. using GraphPad Prism software, Version 5 (San Diego, CA, USA). The data presented are the mean of at least three separate experiments.

Data set [2] concerns MCF-7 breast cancer cell line. The data set can be described thus: Crystal Violet antiproliferative assay, MCF-7. It counts as cell-based. The following applies: Homo sapiens, MCF7, 48 h, Crystal Violet assay; 48 h of incubation; mean ± S.D. of three separate experiments. How it is done: as §1, §2, §3, §4
The test system of data set [3] is lung fibroblast cell line (WI-38). The data set is described as follows: Crystal violet cytotoxicity towards nontumorigenic WI-38. The data set is classed as cell-based. Particulars: Homo sapiens, nontumorigenic cells, mean ± S.D. of three separate experiments. How it is done:
(§5) The cytotoxic activity of the active conjugates towards MDA-MB-231 cells (4c–e, 4g, 4l–n and 7a–d) was examined against nontumorigenic human lung fibroblast cell line (WI-38) and human breast epithelial cell line (MCF-10A) to investigate the potential safety of the newly prepared conjugates towards the normal cells. […] The results were expressed as IC50 values, and selectivity index was calculated (Table 2).
(§6) The cytotoxic activity of the active conjugates towards nontumorigenic human lung fibroblast cell line (WI-38) and human breast epithelial cell line (MCF-10A) was determined using Crystal violet (CV) cell cytotoxicity assay according to the previously published procedures.

For data set [4], the system named is breast epithelial cell line (MCF-10A). The data set can be described thus: Crystal violet cytotoxicity towards nontumorigenic MCF-10A. The data set is classed as cell-based, human. The following applies: for IC50: Homo sapiens, MCF-10A, nontumorigenic cells, mean ± S.D. of three separate experiments; for Selectivity Index (MCF-10A/MDA-MB-231): ratio of IC50 MCF-10A to IC50 MDA-MB-231. How it is done:
as §5, §6

As to `O=C1Nc2ccccc2C1=C1SC(=Nc2ccccc2)N(c2ccccc2)C1=O` [Compound 4a, 5-(2-Oxoindolin-3-ylidene)-3-phenyl-2-(phenylimino)thiazolidin-4-one], the IC50 is greater than 200 µM in data set [1] (Homo sapiens, MDA-MB-231, 48 h) and greater than 200 µM in data set [2].

As for `O=C1Nc2ccc(F)cc2C1=C1SC(=Nc2ccccc2)N(c2ccccc2)C1=O` [Compound 4b, 5-(5-Fluoro-2-oxoindolin-3-ylidene)-3-phenyl-2-(phenylimino)thiazolidin-4-one], the melting point was greater than 300 °C. Further, the half-inhibitory concentration (IC50) in data set [1] (Homo sapiens, MDA-MB-231, 48 h) was 108 ± 8.2 µM. This compound had an IC50 in data set [2] of 58.5 ± 3.2 µM.

Consider `O=C1Nc2ccc(Cl)cc2C1=C1SC(=Nc2ccccc2)N(c2ccccc2)C1=O` [Compound 4c, 5-(5-Chloro-2-oxoindolin-3-ylidene)-3-phenyl-2-(phenylimino)thiazolidin-4-one], for which the IC50 was 24.1 ± 2.1 µM in data set [1] (Homo sapiens, MDA-MB-231, 48 h); 29.2 ± 2.5 µM in data set [2]; 87.2 ± 5.2 µM in data set [3]; 113 ± 5.9 µM in data set [4]. Besides, the “Selectivity Index (MCF-10A/MDA-MB-231)” value in data set [4] is given as 4.7.

Turning to `O=C1Nc2ccc(Br)cc2C1=C1SC(=Nc2ccccc2)N(c2ccccc2)C1=O` [Compound 4d, 5-(5-Bromo-2-oxoindolin-3-ylidene)-3-phenyl-2-(phenylimino)thiazolidin-4-one], the IC50 stood at 15.7 ± 0.9 µM in data set [1] (Homo sapiens, MDA-MB-231, 48 h); 17.1 ± 1.1 µM in data set [2]; 65.5 ± 4.2 µM in data set [3]; 80.7 ± 3.4 µM in data set [4]. For the same compound, in data set [4], the “Selectivity Index (MCF-10A/MDA-MB-231)” value came out at 5.1.

For `COc1ccc2c(c1)C(=C1SC(=Nc3ccccc3)N(c3ccccc3)C1=O)C(=O)N2` [Compound 4e, 5-(5-Methoxy-2-oxoindolin-3-ylidene)-3-phenyl-2-(phenylimino)thiazolidin-4-one], the IC50 in data set [1] (Homo sapiens, MDA-MB-231, 48 h) came to 42.6 ± 3.4 µM; in data set [2] it was 52.9 ± 5 µM; in data set [3], 193 ± 10.6 µM; in data set [4] it was 89.6 ± 5.1 µM. The “Selectivity Index (MCF-10A/MDA-MB-231)” value in data set [4] is listed as 2.1.

For `Cc1ccc2c(c1)C(=C1SC(=Nc3ccccc3)N(c3ccccc3)C1=O)C(=O)N2` [Compound 4f, 5-(5-Methyl-2-oxoindolin-3-ylidene)-3-phenyl-2-(phenylimino)thiazolidin-4-one], the IC50 in data set [1] (Homo sapiens, MDA-MB-231, 48 h) came out at 60.9 ± 4.2 µM; in data set [2], 22.8 ± 2 µM.

Consider `Cc1cc(C)c2c(c1)C(=C1SC(=Nc3ccccc3)N(c3ccccc3)C1=O)C(=O)N2` [Compound 4g, 5-(5,7-Dimethyl-2-oxoindolin-3-ylidene)-3-phenyl-2-(phenylimino)thiazolidin-4-one], for which the melting point was greater than 300 °C. This compound yielded an IC50 in data set [1] (Homo sapiens, MDA-MB-231, 48 h) of 43.6 ± 3.1 µM. Further, the IC50 in data set [3] came out at 120 ± 7.8 µM. In addition, in data set [4], the IC50 came to 142 ± 7.9 µM and the “Selectivity Index (MCF-10A/MDA-MB-231)” value stood at 3.25.

With `Cc1ccc(N=C2SC(=C3C(=O)Nc4ccccc43)C(=O)N2c2ccc(C)cc2)cc1` [Compound 4h, 5-(2-Oxoindolin-3-ylidene)-3-(p-tolyl)-2-(p-tolylimino)thiazolidin-4-one], the melting point is greater than 300 °C. Moreover, the half-maximal inhibitory concentration (IC50) in data set [1] (Homo sapiens, MDA-MB-231, 48 h) stood at 51.7 ± 2.1 µM. Also, the concentration for half-maximal inhibition (IC50) in data set [2] was 56 ± 3.7 µM.

In the case of `Cc1ccc(N=C2SC(=C3C(=O)Nc4ccc(F)cc43)C(=O)N2c2ccc(C)cc2)cc1` [Compound 4i, 5-(5-Fluoro-2-oxoindolin-3-ylidene)-3-(p-tolyl)-2-(p-tolylimino)thiazolidin-4-one], the melting point was greater than 300 °C. In data set [1] (Homo sapiens, MDA-MB-231, 48 h), the midpoint of inhibition, the IC50, lay at 152 ± 11.5 µM. The IC50 in data set [2] turned out to be 105 ± 7.5 µM.

The compound `Cc1ccc(N=C2SC(=C3C(=O)Nc4ccc(Cl)cc43)C(=O)N2c2ccc(C)cc2)cc1` [Compound 4j, 5-(5-Chloro-2-oxoindolin-3-ylidene)-3-(p-tolyl)-2-(p-tolylimino)thiazolidin-4-one] gave a melting point greater than 300 °C. The compound further registered an IC50 in data set [1] (Homo sapiens, MDA-MB-231, 48 h) of 50.8 ± 3.5 µM. Besides, the IC50 in data set [2] was greater than 200 µM.

Consider `Cc1ccc(N=C2SC(=C3C(=O)Nc4ccc(Br)cc43)C(=O)N2c2ccc(C)cc2)cc1` [Compound 4k, 5-(5-Bromo-2-oxoindolin-3-ylidene)-3-(p-tolyl)-2-(p-tolylimino)thiazolidin-4-one], for which the melting point is greater than 300 °C. Further, the IC50 in data set [1] (Homo sapiens, MDA-MB-231, 48 h) was greater than 200 µM. In data set [2], this compound showed an IC50 greater than 200 µM.

Turning to `COc1ccc2c(c1)C(=C1SC(=Nc3ccc(C)cc3)N(c3ccc(C)cc3)C1=O)C(=O)N2` [Compound 4l, 5-(5-Methoxy-2-oxoindolin-3-ylidene)-3-(p-tolyl)-2-(p-tolylimino)thiazolidin-4-one], the melting point was greater than 300 °C. Moreover, the IC50 in data set [1] came out at 47.2 ± 4.1 µM. Moreover, 47.1 ± 4.1 µM corresponded to half-maximal inhibition in data set [1] (Homo sapiens, MDA-MB-231, 48 h) (IC50). Besides, inhibition in data set [2] was half-maximal at 53.5 ± 3.6 µM (IC50). The compound further yielded an IC50 in data set [3] of 176 ± 11.3 µM. Further, in data set [4], the IC50 was found to be 157 ± 6.8 µM and the “Selectivity Index (MCF-10A/MDA-MB-231)” value is listed as 3.3.

`Cc1ccc(N=C2SC(=C3C(=O)Nc4c(C)cc(C)cc43)C(=O)N2c2ccc(C)cc2)cc1` [Compound 4n, 5-(5,7-Dimethyl-2-oxoindolin-3-ylidene)-3-(p-tolyl)-2-(p-tolylimino)thiazolidin-4-one] showed a melting point greater than 300 °C. Also, the IC50 in data set [1] (Homo sapiens, MDA-MB-231, 48 h) is 36.3 ± 2.9 µM. For the same compound, the IC50 in data set [2] came to 23.7 ± 1.9 µM. Further, the IC50 in data set [3] amounted to 218 ± 13.5 µM. For the same compound, in data set [4], the IC50 came out at 154 ± 5.2 µM and the “Selectivity Index (MCF-10A/MDA-MB-231)” value stood at 4.2.

Compound `O=C1Nc2ccc(Cl)cc2C1=c1sc2nc3ccccc3n2c1=O` [Compound 7a, 2-(5-Chloro-2-oxoindolin-3-ylidene)benzo[4,5]imidazo[2,1-b]thiazol-3(2H)-one] yielded a melting point greater than 300 °C. Further, it took 47.2 ± 3.8 µM to reach half-maximal inhibition in data set [1] (Homo sapiens, MDA-MB-231, 48 h) (IC50). In data set [2], this compound returned an IC50 of 127 ± 9.9 µM. For the same compound, the IC50 in data set [3] was determined as 353 ± 17.1 µM. Moreover, in data set [4], the IC50 worked out at 234 ± 9.6 µM and the “Selectivity Index (MCF-10A/MDA-MB-231)” value is 5.0.

The compound `Cc1ccc2c(c1)C(=c1sc3nc4ccccc4n3c1=O)C(=O)N2` [Compound 7c, 2-(5-Methyl-2-oxoindolin-3-ylidene)benzo[4,5]imidazo[2,1-b]thiazol-3(2H)-one] displayed a melting point greater than 300 °C. This compound registered an IC50 in data set [1] (Homo sapiens, MDA-MB-231, 48 h) of 40.3 ± 2.5 µM. In data set [2], this compound gave an IC50 of 48.2 ± 2.7 µM. The compound further showed an IC50 in data set [3] of 192 ± 10.8 µM. Besides, in data set [4], the IC50 was determined as 242 ± 11.5 µM and the “Selectivity Index (MCF-10A/MDA-MB-231)” value is given as 6.0.

`Cc1cc(C)c2c(c1)C(=c1sc3nc4ccccc4n3c1=O)C(=O)N2` [Compound 7d, 2-(5,7-Dimethyl-2-oxoindolin-3-ylidene)benzo[4,5]imidazo[2,1-b]thiazol-3(2H)-one] gave a melting point greater than 300 °C. In data set [1] (Homo sapiens, MDA-MB-231, 48 h), this compound gave an IC50 of 23.5 ± 1 µM. The compound also registered an IC50 in data set [2] of 27.6 ± 2.4 µM. This compound came in with an IC50 in data set [3] of 234 ± 15.4 µM. Besides, in data set [4], the IC50 was determined as 250 ± 9.8 µM and the “Selectivity Index (MCF-10A/MDA-MB-231)” value was found to be 10.7.

Regarding `COc1cccc2c1C(=O)c1c(O)c3c(c(O)c1C2=O)C[C@@](O)(C(=O)CO)C[C@@H]3O[C@H]1C[C@H](N)[C@H](O)[C@H](C)O1` [Dox., Doxorubicin, reference compound], the IC50 is 4.7 ± 0.4 µM in data set [1] (Homo sapiens, MDA-MB-231, 48 h) and 3.8 ± 0.4 µM in data set [2].

In the case of `CCN(CC)CCNC(=O)c1c(C)[nH]c(/C=C2\C(=O)Nc3ccc(F)cc32)c1C` [Sunitinib, reference compound], the IC50 in data set [1] (Homo sapiens, MDA-MB-231, 48 h) was 5.5 ± 0.5 µM; in data set [2], 3.4 ± 0.3 µM.
